Columns and labels:
[1] = tested on: Tibial organ cultures (E15.5); test: Tibial organ culture (ex vivo); set-up: species or system mice; conditions: 100 nM for 6 days
Method: Tibial organ culture. Tibiae were isolated from embryonic day 15.5 (e15.5) mice and cultured for 6 days in phenol red-free a-MEM (Gibco) containing ascorbic acid, β-glycerophosphate, BSA, L-glutamine, and penicillin-streptomycin, as previously described (Gillespie et al, 2011). After dissection, tibiae were incubated in medium overnight and then treated with E2 (Sigma-Aldrich). Media and reagents were changed every 48 hours. Tibial images were captured using a SMZ-745T microscope (Nikon). Tibial length was measured prior to treatment and after 6 days in culture. The samples were then prepared for paraffin embedding, sectioned, and analyzed by H&E and IHC staining.

[2] = tested on: growth plates of proximal tibiae of mice; test: Growth plate senescence and longitudinal bone growth in mice; assay type: in vivo
Method: Animals. Cxxc5^−/− mice were established in a previous study. See e.g., Kim H. Y. et al. (2015), CXXC5 is a negative feedback regulator of the Wnt/beta-catenin pathway involved in osteoblast differentiation. CELL DEATH DIFFER 22: 912-920. To manipulate growth plate senescence by estrogen, 3-week-old […] Cxxc5^−/− male mice received weekly intramuscular (i.m.) injections of either 70 μg/kg estradiol (E2) cypionate (Sigma-Aldrich) or vehicle (cottonseed oil) for 3 weeks. To investigate the effects of KY19382 treatment on longitudinal bone growth, C57BL/6 male mice were purchased from KOATECH (Gyeonggido, Korea). KY19382 (0.1 ing/kg) was administered daily by intraperitoneal (i.p.) injection to 3- and 7-week-old mice for 2 weeks or to 3-week-old mice for 10 weeks. For BrdU labeling experiments, mice were i.p. injected with 50 mg/kg BrdU (Sigma-Aldrich) before 24 hours to sacrifice. All animal procedures were approved by the Institutional Animal Care and Use Committee (IACUC) of Yonsei University (Korea) and conducted based on the guidelines of the Korean Food and Drug Administration.
Radiographic and histochemical analyses. Plain radiographs were taken using an X-ray apparatus (KODAK DXS 4000 Pro SYSTEM; Carestream Health Rochester, N.Y.). The tissues were fixed in 4% paraformaldehyde (PFA), decalcified in 10% EDTA (pH 7.4), dehydrated, embedded in paraffin, and sectioned to 4 μm thickness (Leica Microsystems, Wetzlar, Germany). The tissues sections were rehydrated and used for further analyses including H&E, TRAP, and itnmunohistochemical (IHC) staining. To perform IHC staining, the sections were incubated with citrate buffer (pH 6.0) at 80° C. for 30 minutes, with 0.05% trypsin working solution (pH 7.8) for 30 minutes at 37° C., or with 0.5% pepsin (Sigma-Aldrich) for 15 minutes at 37° C. Then, the sections were blocked with 5% normal goat serum (NGS; Vector Laboratories, Burlingame, Calif.) and 0.3% triton-x-100 in PBS for 1 hour at room temperature. For 3,3′-diaminobensidine (DAB) staining, the sections were incubated with 0.345% H2O2 for 15 minutes. Before incubating the sections with mouse primary antibody, mouse IgG was blocked using a M.O.M kit (Vector Laboratories). The sections were incubated at 4° C. overnight with the following primary antibodies: anti-β-catenin (BD Bioscience, San Jose, Calif., #610154; 1:50), anti-CXXC5 l (1:200; lab-made) anti-BrdU (DAKO, Carpinteria, Calif., M0744; 1:200), anti-COL2A1 (ThermoFisher Scientific, MA, PAS-11462; 1:100), anti-Ki67 (Abcam, Cambridge, UK, ab15580; 1:200), and anti-RUNX2 (Abeam, ab23981; 1:200). Then, the sections were incubated at room temperature for 1 hour with biotinylated anti-mouse (Vector Laboratories, BA-9200; 1:200) or biotinylated anti-rabbit (Vector Laboratories, BA-1000; 1:200) secondary antibodies. The sections were then incubated in avidin-biotin complex solutions (Vector Laboratories), stained with a DAB kit (Vector Laboratories) for 3-30 minutes, and counterstained with methyl green (Sigma-Aldrich). All incubations were conducted in humid chambers. […] For fluorescence staining, the sections were incubated with primary antibody at 4° C. overnight, followed by incubation with anti-mouse Alexa Fluor 488 (ThermoFisher Scientific, A11008; 1:200) or anti-rabbit Alex Fluor 555 (ThermoFisher Scientific, A21428; 1:200) secondary antibodies at room temperature for 1 hour. The sections were then counterstained with DAPI (Sigma-Aldrich) for 5 minutes and mounted in Gel/Mount media (Biomeda Corporation). All incubations were conducted in dark humid chambers. The fluorescent signals were visualized using a LSM700 META confocal microscope (Carl Zeiss Inc., Thornwood, N.Y.) at excitation wavelengths of 488 nm (Alexa Fluor 488), 543 nm (Alexa Fluor 555), and 405 nm (DAPI).
Immunoblot analyses. […] Protein samples were separated on a 8-12% sodium dodecylsulfate polyacrylamide gel electrophoresis (SDS-PAGE) and transferred to a nitrocellulose membrane (Whatman). […]

[3] = target: GSK3β (human) (Homo sapiens, UniProt P49841); test: GSK3β kinase assay; assay type: biochemical; conditions: from dose-response curve, FIG. 4C; read-out: IC50, in vitro GSK3β activity
Chain of GSK3β (human) (P49841 whole entry): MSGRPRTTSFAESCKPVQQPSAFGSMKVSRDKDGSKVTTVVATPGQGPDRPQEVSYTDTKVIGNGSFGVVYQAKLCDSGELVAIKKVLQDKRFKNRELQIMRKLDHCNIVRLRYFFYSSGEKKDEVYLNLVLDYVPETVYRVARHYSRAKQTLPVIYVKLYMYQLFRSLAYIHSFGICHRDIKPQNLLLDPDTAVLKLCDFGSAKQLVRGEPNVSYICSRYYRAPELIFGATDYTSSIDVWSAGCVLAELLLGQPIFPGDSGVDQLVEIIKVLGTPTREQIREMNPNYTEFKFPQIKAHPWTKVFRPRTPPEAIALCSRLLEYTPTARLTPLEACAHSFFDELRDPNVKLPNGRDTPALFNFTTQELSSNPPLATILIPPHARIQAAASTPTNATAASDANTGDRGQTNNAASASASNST
Method: GSK3β kinase assay. GSK3β (human) was incubated with 8 mM MOPS (pH 7.0), 0.2 mM EDTA, 20 μM […](p) EDEEE (phospho-GS2 peptide) (SEQ ID NO. 37), 10 mM Mg acetate, and [γ-33P-ATP] (specific activity approx. 500 cpm/pmol, concentration as required). The reaction was initiated by the addition of the Mg-ATP mixture. After incubation for 40 minutes at room temperature, the reaction was stopped by addition of 3% phosphoric acid solution. 10 μl of the reaction was then spatted onto a P30 filtermat and washed three times for 5 minutes in 50 mM phosphoric acid and once in methanol prior to drying and scintillation counting.

[4] = 3-week-old mice, 0.1 mg/kg daily for 2 weeks
[5] = 7-week-old mice, 0.1 mg/kg i.p. daily for 2 weeks

Row | Compound | tibial length [1] | structural senescence of the tibial growth plate ([2]; Cxxc5−/− mice, E2 cypionate 70 μg/kg i.m. once a week for 3 weeks) | length of tibiae ([2]; 0.1 mg/kg daily for 10 weeks, mice from 3 to 13 weeks of age, vs vehicle) | height of each growth plate zone and BrdU-positive cells [2, 4] | β-catenin-expressing chondrocytes [2, 4] | number of TRAP-positive foci in the growth plate/trabecular interface ([2]; 3-week-old mice, 0.1 mg/kg daily for 2 weeks, vs vehicle) | nuclear β-catenin in growth plate chondrocytes [2, 5] | numbers of proliferative and hypertrophic chondrocytes per column (BrdU- and RUNX2-positive cells) [2, 5] | total growth plate height, monitored by COL2A1 immunostaining [2, 5] | β-catenin and chondrogenic markers (COL2A1, RUNX2, MMP13) in the growth plate, immunoblot [2, 5] | TRAP-positive foci ([2]; mice treated from 7 to 9 weeks of age, 0.1 mg/kg, vs vehicle) | IC50 [3] [µM]
1 | 17β-estradiol [Compound E2] | reduced | hardly observed |  |  |  |  |  |  |  |  |  | 
2 | CO/N=C1/C(=C2/C(=O)Nc3cc(Cl)c(Cl)cc32)Nc2ccccc21 [KY19382, 5,6-dichloroindirubin-3′-methoxime] |  |  | significantly increased | elevated | increased | not different | dramatically increased | increased numbers | significantly increased | increased | elevated | 0.01

— patent publication US20210323918A1, “COMPOSITIONS AND METHODS FOR SUPPRESSING AND/OR TREATING A GROWTH RELATED DISEASE AND/OR A CLINICAL CONDITION THEREOF” (CK Biotech Inc., priority 2018, published 2021)
